{
  "source": "PubChem BioAssay AID1259407",
  "about": "(Chemical Carcinogenesis Research Information System (CCRIS), 2018)",
  "system": "CCRIS mutagenicity, Ames/micronucleus/aberration tests",
  "assay": "CCRIS mutagenicity studies",
  "key": {"[1]": {"conditions": "Test System: AMES SALMONELLA TYPHIMURIUM, Strain/Indicator: TA98, Metabolic Activation: NONE, Method: STANDARD PLATE"}, "[2]": {"conditions": "Test System: AMES SALMONELLA TYPHIMURIUM, Strain/Indicator: TA100, Metabolic Activation: NONE, Method: STANDARD PLATE"}},
  "note": "Active and inactive are the calls of the source. No rule for the calls is given here.",
  "data": [
    {"molecule": "Nc1ccc2sncc2c1", "values": [
      {"measurement": "mutagenic call", "setting": "Test System: AMES SALMONELLA TYPHIMURIUM, Strain/Indicator: TA100, Metabolic Activation: S-9, Method: STANDARD PLATE", "value": "active; positive"}
    ]},
    {"molecule": "NCC1CCC(C(=O)c2ccc(CCC(=O)O)cc2)CC1", "note": "(configuration not stated)", "values": [
      {"measurement": "mutagenic call", "setting": "[1]", "value": "inactive; negative"},
      {"measurement": "mutagenic call", "setting": "Test System: AMES SALMONELLA TYPHIMURIUM, Strain/Indicator: TA98, Metabolic Activation: RAT, LIVER, S-9, AROCLOR 1254, Method: STANDARD PLATE", "value": "inactive; negative"},
      {"measurement": "mutagenic call", "setting": "[2]", "value": "inactive; negative"},
      {"measurement": "mutagenic call", "setting": "Test System: AMES SALMONELLA TYPHIMURIUM, Strain/Indicator: TA100, Metabolic Activation: RAT, LIVER, S-9, AROCLOR 1254, Method: STANDARD PLATE", "value": "inactive; negative"},
      {"measurement": "mutagenic call", "setting": "Test System: AMES SALMONELLA TYPHIMURIUM, Strain/Indicator: TA1535, Metabolic Activation: NONE, Method: STANDARD PLATE", "value": "inactive; negative"},
      {"measurement": "mutagenic call", "setting": "Test System: AMES SALMONELLA TYPHIMURIUM, Strain/Indicator: TA1535, Metabolic Activation: RAT, LIVER, S-9, AROCLOR 1254, Method: STANDARD PLATE", "value": "inactive; negative"},
      {"measurement": "mutagenic call", "setting": "Test System: AMES SALMONELLA TYPHIMURIUM, Strain/Indicator: TA1537, Metabolic Activation: NONE, Method: STANDARD PLATE", "value": "inactive; negative"},
      {"measurement": "mutagenic call", "setting": "Test System: AMES SALMONELLA TYPHIMURIUM, Strain/Indicator: TA1537, Metabolic Activation: RAT, LIVER, S-9, AROCLOR 1254, Method: STANDARD PLATE", "value": "inactive; negative"},
      {"measurement": "mutagenic call", "setting": "Test System: AMES SALMONELLA TYPHIMURIUM, Strain/Indicator: TA1538, Metabolic Activation: NONE, Method: STANDARD PLATE", "value": "inactive; negative"},
      {"measurement": "mutagenic call", "setting": "Test System: AMES SALMONELLA TYPHIMURIUM, Strain/Indicator: TA1538, Metabolic Activation: RAT, LIVER, S-9, AROCLOR 1254, Method: STANDARD PLATE", "value": "inactive; negative"},
      {"measurement": "mutagenic call", "setting": "Test System: E. COLI, Strain/Indicator: WP2 UVRA, Metabolic Activation: NONE, Method: STANDARD PLATE", "value": "inactive; negative"},
      {"measurement": "mutagenic call", "setting": "Test System: E. COLI, Strain/Indicator: WP2 UVRA, Metabolic Activation: RAT, LIVER, S-9, AROCLOR 1254, Method: STANDARD PLATE", "value": "inactive; negative"}
    ]},
    {"molecule": "Oc1cccc2c1ccc1[nH]c3ccc4ccccc4c3c12", "values": [
      {"measurement": "mutagenic call", "setting": "[1]", "value": "active; positive"},
      {"measurement": "mutagenic call", "setting": "Test System: AMES SALMONELLA TYPHIMURIUM, Strain/Indicator: TA98, Metabolic Activation: RAT, LIVER, S-9, 3-METHYLCHOLANTHRENE, Method: STANDARD PLATE", "value": "active; positive"},
      {"measurement": "mutagenic call", "setting": "[2]", "value": "active; positive"},
      {"measurement": "mutagenic call", "setting": "Test System: AMES SALMONELLA TYPHIMURIUM, Strain/Indicator: TA100, Metabolic Activation: RAT, LIVER, S-9, 3-METHYLCHOLANTHRENE, Method: STANDARD PLATE", "value": "active; positive"},
      {"measurement": "mutagenic call", "setting": "Test System: AMES SALMONELLA TYPHIMURIUM, Strain/Indicator: TM677, Metabolic Activation: NONE, Method: PREINCUBATION", "value": "inactive; negative"},
      {"measurement": "mutagenic call", "setting": "Test System: AMES SALMONELLA TYPHIMURIUM, Strain/Indicator: TM677, Metabolic Activation: RAT, LIVER, S-9, 3-METHYLCHOLANTHRENE (10%), Method: PREINCUBATION", "value": "active; positive"},
      {"measurement": "mutagenic call", "setting": "Test System: AMES SALMONELLA TYPHIMURIUM, Strain/Indicator: TM677, Metabolic Activation: RAT, LIVER, S-9, AROCLOR 1254 (10%), Method: PREINCUBATION", "value": "active; positive"}
    ]},
    {"molecule": "CC(C)c1ccccc1OP(=O)(Oc1ccccc1)Oc1ccccc1", "values": [
      {"measurement": "mutagenic call", "setting": "Test System: AMES SALMONELLA TYPHIMURIUM, Strain/Indicator: TA97, Metabolic Activation: HAMSTER, LIVER, S-9, AROCLOR 1254 (10 OR 30%), Method: PREINCUBATION", "value": "inactive; negative"},
      {"measurement": "mutagenic call", "setting": "Test System: AMES SALMONELLA TYPHIMURIUM, Strain/Indicator: TA97, Metabolic Activation: NONE, Method: PREINCUBATION", "value": "inactive; negative"},
      {"measurement": "mutagenic call", "setting": "Test System: AMES SALMONELLA TYPHIMURIUM, Strain/Indicator: TA97, Metabolic Activation: RAT, LIVER, S-9, AROCLOR 1254 (10 OR 30%), Method: PREINCUBATION", "value": "inactive; negative"},
      {"measurement": "mutagenic call", "setting": "Test System: AMES SALMONELLA TYPHIMURIUM, Strain/Indicator: TA98, Metabolic Activation: HAMSTER, LIVER, S-9, AROCLOR 1254 (10 OR 30%), Method: PREINCUBATION", "value": "inactive; negative"},
      {"measurement": "mutagenic call", "setting": "Test System: AMES SALMONELLA TYPHIMURIUM, Strain/Indicator: TA98, Metabolic Activation: NONE, Method: PREINCUBATION", "value": "inactive; negative"},
      {"measurement": "mutagenic call", "setting": "Test System: AMES SALMONELLA TYPHIMURIUM, Strain/Indicator: TA98, Metabolic Activation: RAT, LIVER, S-9, AROCLOR 1254 (10 OR 30%), Method: PREINCUBATION", "value": "inactive; negative"},
      {"measurement": "mutagenic call", "setting": "Test System: AMES SALMONELLA TYPHIMURIUM, Strain/Indicator: TA100, Metabolic Activation: HAMSTER, LIVER, S-9, AROCLOR 1254 (10 OR 30%), Method: PREINCUBATION", "value": "inactive; negative"},
      {"measurement": "mutagenic call", "setting": "Test System: AMES SALMONELLA TYPHIMURIUM, Strain/Indicator: TA100, Metabolic Activation: NONE, Method: PREINCUBATION", "value": "inactive; negative"},
      {"measurement": "mutagenic call", "setting": "Test System: AMES SALMONELLA TYPHIMURIUM, Strain/Indicator: TA100, Metabolic Activation: RAT, LIVER, S-9, AROCLOR 1254 (10 OR 30%), Method: PREINCUBATION", "value": "inactive; negative"},
      {"measurement": "mutagenic call", "setting": "Test System: AMES SALMONELLA TYPHIMURIUM, Strain/Indicator: TA1535, Metabolic Activation: HAMSTER, LIVER, S-9, AROCLOR 1254 (10 OR 30%), Method: PREINCUBATION", "value": "inactive; negative"},
      {"measurement": "mutagenic call", "setting": "Test System: AMES SALMONELLA TYPHIMURIUM, Strain/Indicator: TA1535, Metabolic Activation: NONE, Method: PREINCUBATION", "value": "inactive; negative"},
      {"measurement": "mutagenic call", "setting": "Test System: AMES SALMONELLA TYPHIMURIUM, Strain/Indicator: TA1535, Metabolic Activation: RAT, LIVER, S-9, AROCLOR 1254 (10 OR 30%), Method: PREINCUBATION", "value": "inactive; negative"}
    ]}
  ]
}
